SMILES strings stand for the structures.

The term IC50 denotes the point on the concentration scale where inhibition reaches its midpoint. Lower therefore signals inhibition by little substance. In general, viability refers to a read-out of living cells in per cent, often relative to untreated cells.

The target of the first series is T1, HuR-mRNA interaction (Homo sapiens, UniProt Q15717).
T1 construct: made in house; host or cells: HEK293T cells
T1 sequence (Q15717 whole entry): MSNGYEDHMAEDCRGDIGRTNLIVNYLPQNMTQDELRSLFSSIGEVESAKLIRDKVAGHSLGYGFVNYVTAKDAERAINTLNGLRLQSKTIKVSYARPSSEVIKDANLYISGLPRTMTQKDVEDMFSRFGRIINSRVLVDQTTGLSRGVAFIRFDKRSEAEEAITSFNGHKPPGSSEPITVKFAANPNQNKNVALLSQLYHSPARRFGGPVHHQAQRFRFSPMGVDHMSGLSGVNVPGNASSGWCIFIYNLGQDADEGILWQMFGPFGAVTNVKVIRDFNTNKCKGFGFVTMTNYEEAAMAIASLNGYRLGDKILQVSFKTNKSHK
The experiment in a line: AlphaScreen assay, inhibition of HuR-mRNA interaction. It is filed as binding. The note with it: rHuR and biotinylated RNA probe. As to the method:
The full encoding sequence for human HuR/ELAVL1 gene (NM001419) has been amplified from cDNA obtained by retro-transcription from RNA of MCF7 cells and inserted into the pCMV6-AC-Myc-His PrecisionShuttle vector (Origene Technologies). The pCMV6-HuR recombinant vector has been transfected into HEK293T cells by using the transfection reagent Lipofectamine® 2000 (Life Technologies) according to the manufacturer protocol. HEK293T cells have been cultured in a complete medium (10% DMEM, 10% FBS, 2 mM Glutamine, 100 units/ml penicillin+100 μg/ml streptomycin) in humidified 5% CO2 atmosphere at 37° C.
Two types of assay have been performed, in order to define the profile of the aza-tanshinones and their inhibitory activity. REMSA (RNA-EMSA, RNA electrophoresis mobility shift assay) in 5% polyacrylamide gel requires the use of a RNA fluorescent probe (5′-Cy3-[…]), while the AlphaScreen assay required a RNA 5′-biotinylated probe (BiTNF, 5′-[…]). […] IC50 values have been obtained by means of non-linear regression of the fit of the log(dose) response by using the same software.
(In general: Alpha assays give light when donor and acceptor beads are brought close together.)
In the case of `COc1ccc(-c2cn(S(=O)(=O)c3ccccc3)c3c2C(=O)C(=O)C=C3)cc1` [Compound 28, 1-phenylsulfonyl-3-(p-methoxyphenyl)-4,5-dioxo indole], 287 ± 30 nM corresponded to half-maximal inhibition (IC50).
Turning to `O=C1C=Cc2c(c(-c3ccccc3)cn2S(=O)(=O)c2cccc([N+](=O)[O-])c2)C1=O` [Compound 24, 1-(m-Nitrophenylsulfonyl)-3-phenyl-4,5-dioxoindole], the IC50 was 342 ± 64 nM.
`O=C1C=Cc2c(c(-c3ccccc3)cn2S(=O)(=O)c2cccc(F)c2)C1=O` [Compound 27, 1-(m-Fluorophenylsulfonyl)-3-phenyl-4,5-dioxo indole]: the IC50 turned out to be 251 ± 31 nM.

Test system in a further series: not listed separately
Nature of the series: alamar Blue viability assay. The note with it: human, THP-1 cells (monocytic leukemia); THP1, 10 μM, 24 hours, vs DMSO. Type of series: cell-based, human. Here is the method:
(§1) Tumor cell lines of metastatic breast cancer (MDA-MB-231), breast cancer (MCF7), human monocytic leukemia (THP-1) and pancreatic carcinoma (PANC-1) have been cultured in a complete DMEM or RPMI 1640 (Gibco Life Technologies) supplemented with 10% fetal bovine serum (FBS, Lonza), 2 mM L-glutamine and 100 U/ml penicillin-streptomycin (Lonza). The cell lines have been cultured at 37° C. in 5% CO2 and have been regularly tested for Mycoplasma contamination. The viability has been measured by means of alamar Blue assay (Thermo Fisher) under treatment for 24 hours with nanomolar to micromolar doses of aza-tanshinones. The mean viability and the standard deviation (SD) per each test compound have been obtained from the dose-response curves for triple doses (0.01, 0.1, 1. 10. 50 μM) in comparison with the control vehicle (DMSO).
(§2) The group of cell lines used in Paragraph 8.2, with the addition of the tumor cell lines of the metastatic breast cancer SK-BR-3 and of the colon adenocarcinoma SW-480, has been used to measure the IC50/cytotoxicity potency of compound 26. The viability assays have been performed as shown in Paragraph 8.2.
Background: Alamar Blue is a resazurin reagent that responds to reducing activity.
With `O=C1C=Cc2c(c(-c3ccccc3)cn2S(=O)(=O)c2ccc(F)cc2)C1=O` [Compound 25, 1-(p-Fluorophenylsulfonyl)-3-phenyl-4,5-dioxo indole], the viability at 24 h, 10 µM is 100%.
The same measure, in the same setting: to `COc1ccc(-c2cn(S(=O)(=O)c3ccccc3)c3c2C(=O)C(=O)C=C3)cc1` [Compound 28, 1-phenylsulfonyl-3-(p-methoxyphenyl)-4,5-dioxo indole] belongs 105%; to `O=C1C=Cc2c(c(-c3ccccc3)cn2S(=O)(=O)c2cccc([N+](=O)[O-])c2)C1=O` [Compound 24, 1-(m-Nitrophenylsulfonyl)-3-phenyl-4,5-dioxoindole], 100%.
Still for that read-out and setting: for `O=C1C=Cc2c(c(-c3ccccc3)cn2S(=O)(=O)c2cccc(F)c2)C1=O` [Compound 27, 1-(m-Fluorophenylsulfonyl)-3-phenyl-4,5-dioxo indole] the value was 83%.

The same series, now with this note: human, THP-1 cells (monocytic leukemia); THP1, 50 μM, 24 hours, vs DMSO.
For `O=C1C=Cc2c(c(-c3ccccc3)cn2S(=O)(=O)c2ccc(F)cc2)C1=O` [Compound 25, 1-(p-Fluorophenylsulfonyl)-3-phenyl-4,5-dioxo indole], the viability at 24 h, 50 µM was 35%.
As for `COc1ccc(-c2cn(S(=O)(=O)c3ccccc3)c3c2C(=O)C(=O)C=C3)cc1` [Compound 28, 1-phenylsulfonyl-3-(p-methoxyphenyl)-4,5-dioxo indole], the viability at 24 h, 50 µM stood at 46%.
In the case of `O=C1C=Cc2c(c(-c3ccccc3)cn2S(=O)(=O)c2cccc([N+](=O)[O-])c2)C1=O` [Compound 24, 1-(m-Nitrophenylsulfonyl)-3-phenyl-4,5-dioxoindole], the viability at 24 h, 50 µM came out at 27%.
With `O=C1C=Cc2c(c(-c3ccccc3)cn2S(=O)(=O)c2cccc(F)c2)C1=O` [Compound 27, 1-(m-Fluorophenylsulfonyl)-3-phenyl-4,5-dioxo indole], the viability at 24 h, 50 µM came out at 32%.

Test system in another series: not listed separately
The experiment in a line: alamar Blue viability assay. Type of series: cell-based. The note with it: human, MCF7 cells (breast cancer); MCF7, 10 μM, 24 hours, vs DMSO. As to the method:
as §1, §2
In the case of `O=C1C=Cc2c(c(-c3ccccc3)cn2S(=O)(=O)c2ccc(F)cc2)C1=O` [Compound 25, 1-(p-Fluorophenylsulfonyl)-3-phenyl-4,5-dioxo indole], the viability at 24 h, 10 µM is 100%.
Same read-out and setting: for `COc1ccc(-c2cn(S(=O)(=O)c3ccccc3)c3c2C(=O)C(=O)C=C3)cc1` [Compound 28, 1-phenylsulfonyl-3-(p-methoxyphenyl)-4,5-dioxo indole] the value was 91%.
On the same count and under the same terms, for `O=C1C=Cc2c(c(-c3ccccc3)cn2S(=O)(=O)c2cccc([N+](=O)[O-])c2)C1=O` [Compound 24, 1-(m-Nitrophenylsulfonyl)-3-phenyl-4,5-dioxoindole] the value was 100%; for `O=C1C=Cc2c(c(-c3ccccc3)cn2S(=O)(=O)c2cccc(F)c2)C1=O` [Compound 27, 1-(m-Fluorophenylsulfonyl)-3-phenyl-4,5-dioxo indole], 108%.

Still in this series, the particulars now being: human, MCF7 cells (breast cancer); MCF7, 50 μM, 24 hours, vs DMSO.
For `O=C1C=Cc2c(c(-c3ccccc3)cn2S(=O)(=O)c2ccc(F)cc2)C1=O` [Compound 25, 1-(p-Fluorophenylsulfonyl)-3-phenyl-4,5-dioxo indole], the viability at 24 h, 50 µM was 63%.
Still for that read-out and setting: for `COc1ccc(-c2cn(S(=O)(=O)c3ccccc3)c3c2C(=O)C(=O)C=C3)cc1` [Compound 28, 1-phenylsulfonyl-3-(p-methoxyphenyl)-4,5-dioxo indole] the value was 75%; for `O=C1C=Cc2c(c(-c3ccccc3)cn2S(=O)(=O)c2cccc([N+](=O)[O-])c2)C1=O` [Compound 24, 1-(m-Nitrophenylsulfonyl)-3-phenyl-4,5-dioxoindole], 54%.
Regarding `O=C1C=Cc2c(c(-c3ccccc3)cn2S(=O)(=O)c2cccc(F)c2)C1=O` [Compound 27, 1-(m-Fluorophenylsulfonyl)-3-phenyl-4,5-dioxo indole], the viability at 24 h, 50 µM was 79%.

The same series, now with this note: human, MDA-MB-231 cells (metastatic breast cancer); MDA-MB-231, 10 μM, 24 hours, vs DMSO.
With `O=C1C=Cc2c(c(-c3ccccc3)cn2S(=O)(=O)c2ccc(F)cc2)C1=O` [Compound 25, 1-(p-Fluorophenylsulfonyl)-3-phenyl-4,5-dioxo indole], the viability at 24 h, 10 µM was 103%.
On the same count and under the same terms, for `COc1ccc(-c2cn(S(=O)(=O)c3ccccc3)c3c2C(=O)C(=O)C=C3)cc1` [Compound 28, 1-phenylsulfonyl-3-(p-methoxyphenyl)-4,5-dioxo indole] the value was 106%; for `O=C1C=Cc2c(c(-c3ccccc3)cn2S(=O)(=O)c2cccc([N+](=O)[O-])c2)C1=O` [Compound 24, 1-(m-Nitrophenylsulfonyl)-3-phenyl-4,5-dioxoindole], 94%.
On the same count and under the same terms, for `O=C1C=Cc2c(c(-c3ccccc3)cn2S(=O)(=O)c2cccc(F)c2)C1=O` [Compound 27, 1-(m-Fluorophenylsulfonyl)-3-phenyl-4,5-dioxo indole] the value was 103%.

The same series, now with this note: human, MDA-MB-231 cells (metastatic breast cancer); MDA-MB-231, 50 μM, 24 hours, vs DMSO.
Regarding `O=C1C=Cc2c(c(-c3ccccc3)cn2S(=O)(=O)c2ccc(F)cc2)C1=O` [Compound 25, 1-(p-Fluorophenylsulfonyl)-3-phenyl-4,5-dioxo indole], the viability at 24 h, 50 µM amounted to 50%.
Still for that read-out and setting: for `COc1ccc(-c2cn(S(=O)(=O)c3ccccc3)c3c2C(=O)C(=O)C=C3)cc1` [Compound 28, 1-phenylsulfonyl-3-(p-methoxyphenyl)-4,5-dioxo indole] the value was 57%; for `O=C1C=Cc2c(c(-c3ccccc3)cn2S(=O)(=O)c2cccc([N+](=O)[O-])c2)C1=O` [Compound 24, 1-(m-Nitrophenylsulfonyl)-3-phenyl-4,5-dioxoindole], 36%.
Still for that read-out and setting: to `O=C1C=Cc2c(c(-c3ccccc3)cn2S(=O)(=O)c2cccc(F)c2)C1=O` [Compound 27, 1-(m-Fluorophenylsulfonyl)-3-phenyl-4,5-dioxo indole] belongs 51%.

The series is the same for the next values; noted with them: human, PANC-1 cells (pancreatic carcinoma); PANC-1, 10 μM, 24 hours, vs DMSO.
`O=C1C=Cc2c(c(-c3ccccc3)cn2S(=O)(=O)c2ccc(F)cc2)C1=O` [Compound 25, 1-(p-Fluorophenylsulfonyl)-3-phenyl-4,5-dioxo indole]: the viability at 24 h, 10 µM turned out to be 100%.
On to `COc1ccc(-c2cn(S(=O)(=O)c3ccccc3)c3c2C(=O)C(=O)C=C3)cc1` [Compound 28, 1-phenylsulfonyl-3-(p-methoxyphenyl)-4,5-dioxo indole], for which the viability at 24 h, 10 µM is 90%.
For `O=C1C=Cc2c(c(-c3ccccc3)cn2S(=O)(=O)c2cccc([N+](=O)[O-])c2)C1=O` [Compound 24, 1-(m-Nitrophenylsulfonyl)-3-phenyl-4,5-dioxoindole], the viability at 24 h, 10 µM amounted to 91%.
On the same count and under the same terms, for `O=C1C=Cc2c(c(-c3ccccc3)cn2S(=O)(=O)c2cccc(F)c2)C1=O` [Compound 27, 1-(m-Fluorophenylsulfonyl)-3-phenyl-4,5-dioxo indole] the value was 102%.

Staying with this series, now noted: human, PANC-1 cells (pancreatic carcinoma); PANC-1, 50 μM, 24 hours, vs DMSO.
`O=C1C=Cc2c(c(-c3ccccc3)cn2S(=O)(=O)c2ccc(F)cc2)C1=O` [Compound 25, 1-(p-Fluorophenylsulfonyl)-3-phenyl-4,5-dioxo indole]: the viability at 24 h, 50 µM was found to be 29%.
On the same count and under the same terms, for `COc1ccc(-c2cn(S(=O)(=O)c3ccccc3)c3c2C(=O)C(=O)C=C3)cc1` [Compound 28, 1-phenylsulfonyl-3-(p-methoxyphenyl)-4,5-dioxo indole] the value was 32%.
Consider `O=C1C=Cc2c(c(-c3ccccc3)cn2S(=O)(=O)c2cccc([N+](=O)[O-])c2)C1=O` [Compound 24, 1-(m-Nitrophenylsulfonyl)-3-phenyl-4,5-dioxoindole], for which the viability at 24 h, 50 µM was 20%.
On the same count and under the same terms, for `O=C1C=Cc2c(c(-c3ccccc3)cn2S(=O)(=O)c2cccc(F)c2)C1=O` [Compound 27, 1-(m-Fluorophenylsulfonyl)-3-phenyl-4,5-dioxo indole] the value was 20%.

The values are drawn from US10689342B2, “Aza-tanshinone derivatives, process for their preparation and their use in therapy” (UNIVERSITA' DEGLI STUDI DI MILANO, priority 2016, dated 2020).
